Reference: US4243681A, “Alkylthiophenoxypropanolamines and pharmaceutical compositions and uses thereof” (priority 1979, dated 1981)
Counter-ions that a name gives are not always drawn.

Columns and labels:
adrenergic beta-receptor = target: T1, adrenergic beta-receptor (Cavia porcellus, UniProt Q8K4Z4); assay: Beta-adrenergic blocking activity in the isolated guinea pig trachea (isoproterenol); format: cell-based; details: for Beta-Adrenergic Blocking Potency: potency relative to propanol (equals one), isoproterenol 0.1 mcg./ml.
T1 construct: Tracheas excised from adult guinea pigs; from tissue; host or cells: guinea pig trachea (spirally cut segments)
Description: Test Method. […] The lower end of a tracheal segment is fixed to a stationary glass rod and the upper end is threaded to an isometric tension transducer. Changes in the spontaneous tonus of the tracheal smooth muscle are monitored via the transducer and recorded continuously on an electronic recorder. Adrenergic beta-receptor blocking activity is determined by the ability of a test agent to inhibit the response of the isolated tissue to the adrenergic beta-stimulant "isoproterenol" at a concentration of 0.1 mcg./ml. bath fluid. The tissues are exposed to the test agent solution for a 15-min. interval prior to the addition of isoproterenol to the bath fluid. Beta-receptor blocking potency of a test drug is ascertained from concentration-response relationships wherein the response is expressed as a percent inhibition of isoproterenol-induced tissue response. […] Each drug solution is added to the tissue bathing medium at a constant volume of 0.2 ml./ml. of bath fluid and only one test drug concentration is employed for an individual tissue segment. Potency of the test agent relative to that of the beta-adrenergic blocking agent "propanolol" as a reference standard is assessed by comparing the IC50 values.

rabbit thoracic aorta = assay: Isolated rabbit thoracic aorta, antispasmodic activity vs. potassium chloride; format: cell-based, rabbit (New Zealand White); details: for antispasmodic potency relative to prior art compounds A and B / antispasmodic activity (in words): potassium chloride-induced spasms; for Antispasmodic Potency: potency relative to papaverine (equals one), from pA2 vs. potassium chloride
Description: (§1) Test Method. Antispasmodic activity was assessed in vitro by determining the effect of the test substance on induced contraction of arterial smooth muscle as follows. Adult, male, New Zealand White rabbits (body weight 2.5-4 kg.) were used. Each rabbit was killed by i.v. air injection. The thorax was opened and the descending thoracic aorta removed and placed in Kreb's-bicarbonate solution. Extraneous tissue was removed and the aorta was cut spirally along its entire length. Four spiral segments, each approximately 2 cm. in length (unstretched), were obtained from each thoracic aorta. […] The bath medium surrounding the aortic spiral (Kreb's-bicarbonate solution) was maintained at 37.5°C. and constantly aerated with 95% O2 :5% CO2. Activity of the aortic smooth muscle was recorded on an electronic polygraph via its connection to the tension transducer. After an equilibration period of 60 min., a cumulative dose-response curve was obtained to an agonist (e.g. potassium chloride or norepinephrine) and the tissue then washed. Seventy-five min. later, a second cumulative dose-response curve to the agonist was obtained and the tissue washed again. Sixty min. later, a test drug solution was added to the tissue bath fluid and, after 15 min., drug exposure and, without washing, a third and final agonist-response curve was obtained. All additions to the bath fluid were 0.1 ml. volumes of aqueous solutions.

alpha-adrenergic = assay: Isolated rabbit thoracic aorta, antispasmodic (anti-alpha-adrenergic) activity vs. norepinephrine; format: cell-based, rabbit (New Zealand White); details: norepinephrine as agonist
Description: as §1, with “solutions. […] Selective activity against norepinephrine-induced spasms is indicative of alpha-adrenergic blocking (i.e. antispasmodic) activity. […] Phentolamine is an alpha-adrenergic blocking agent and a standard reference in the art. […] This experiment illustrates that the instant compounds are non-anti-alpha-adrenergic antispasmodic agents in that they have a substantial direct smooth muscle relaxant effect (as shown in Example 34) relatively uncomplicated by any significant selective alpha-adrenergic blocking effect.” for “solutions.”

perfused dog hind limb = assay: Peripheral vasodilator activity, perfused dog hind limb (anesthetized dog); format: in vivo; details: for pressure reduction (findings, range over compounds): infusion dose 1.0 mg./min.
Description: Test Method. Mongrol dogs of either sex weighing between 11 and 16 kg., each, were anesthetized with pentobarbital (30 mg./kg.) administered intravenously. The left brachial vein was cannulated and pentobarbital infused continuously throughout the experiment at a rate of 5 mg./kg./hr. A tracheotomy was performed and dogs ventilated mechanically with room air at a rate of 18 strokes/min. and a volume equivalent to 20 ml./kg. The vagi were sectioned bilaterally in the mid-cervical region of the neck. The right brachial vein and artery were cannulated to inject drugs and to monitor blood pressure via a Statham pressure transducer, respectively. All measurements were recorded on a Beckman-Offner dynograph. The abdominal aorta was exposed through midline incision and a loose ligature placed around the aorta distal to the left renal artery. The right (donor) and left (recipient) femoral arteries were exposed for cannulation and subsequent hind-limb perfursion. Following intravenous administration of heparin (5 mg/kg.) and gallamine triethiodide (2 mg./kg.), the right femoral artery was cannulated and the tip of the catheter advanced into the abdominal aorta to the level of the renal arteries. The left femoral artery was cannulated and the hind-limb perfused using a Harvard Perfusion pump. The ligature previously placed around the aorta was subsequently tied to minimize collateral circulation. […] Perfusion pressure, measured at a point distal to the perfusion pump was set equal to 150 mm Hg. by adjusting pump speed. Blood flow to the limb was determined volumetrically at the conclusion of the experiment. The test agent was administered by infusion at a rate of from 0.1-1.0 mg./min. for a six-minute period and maximum reduction in pressure determined. One to three animals were employed per test agent. […] This protocol precludes effects resulting from animal variation thus permitting a direct side-by-side comparison of vasodilating activity.

[1] = system: human platelet-rich plasma; assay: Inhibition of platelet aggregation in vitro (ADP or collagen induced; antithrombogenic activity); format: cell-based; details: for ED50 ADP (inhibition of platelet aggregation): aggregation induced by 1 mcg. ADP; for ED50 Coll (inhibition of platelet aggregation): minimal amount of collagen producing maximal aggregation
Description: Test Method. A method similar to that described in Born, Nature 194, 927 (1962) and O'Brien, J. Clinical Pathology 15, 446 (1962). This test comprises a nephelometric method in which the change in turbidity of a specimen of human platelet-rich plasma is measured on causation of platelet aggregation by addition of adenosine diphosphate (ADP) or collagen as the thrombogenic inducing agent. An increase in transmittance light occurs when the thrombogenic agent is added to the specimen of platelet-rich plasm due to clumping of platelets. Efficacy of the test compound is determined by ability to prevent the clumping and concommitant increase in transmittance. Various concentrations of the test agent are tested and that concentration causing a 50% reduction in the thrombogenic response is determined from a concentration-response curve.

[2] = infusion rate 0.3 mg./min., side-by-side comparison in same animals
[3] = infusion rate 1.0 mg./min., side-by-side comparison in same animals

T1 sequence (Q8K4Z4 whole entry): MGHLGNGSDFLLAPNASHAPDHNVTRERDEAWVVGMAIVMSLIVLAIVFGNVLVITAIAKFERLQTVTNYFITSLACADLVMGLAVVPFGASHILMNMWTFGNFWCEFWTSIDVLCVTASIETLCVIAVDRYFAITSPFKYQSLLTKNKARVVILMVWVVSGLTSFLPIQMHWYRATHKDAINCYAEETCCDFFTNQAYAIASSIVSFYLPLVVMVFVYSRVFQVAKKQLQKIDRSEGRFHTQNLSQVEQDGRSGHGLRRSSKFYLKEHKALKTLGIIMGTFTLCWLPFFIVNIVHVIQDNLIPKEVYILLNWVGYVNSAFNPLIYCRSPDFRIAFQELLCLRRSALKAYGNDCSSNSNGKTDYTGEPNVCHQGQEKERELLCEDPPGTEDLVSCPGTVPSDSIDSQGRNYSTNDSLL

| SMILES | Beta-Adrenergic Blocking Potency (adrenergic beta-receptor) | antispasmodic potency relative to prior art compounds A and B (rabbit thoracic aorta) | Antispasmodic Potency (rabbit thoracic aorta) | anti-alpha-adrenergic activity relative to phentolamine (alpha-adrenergic) | beta-adrenergic blocking activity (in words) (adrenergic beta-receptor) | antispasmodic activity (in words) (rabbit thoracic aorta) | pressure reduction (findings, range over compounds) (perfused dog hind limb) | Pressure Decrease (perfused dog hind limb; [2]) | Pressure Decrease (perfused dog hind limb; [3]) | ED50 ADP (inhibition of platelet aggregation) [1] | ED50 Coll (inhibition of platelet aggregation) [1] | Pressure Decrease (perfused dog hind limb; infusion rate 0.3 mg./min.) | Pressure Decrease (perfused dog hind limb; infusion rate 1.0 mg./min.) | anti-alpha-adrenergic activity (in words) (alpha-adrenergic) |
| --- | --- | --- | --- | --- | --- | --- | --- | --- | --- | --- | --- | --- | --- | --- |
| CCCCCCCCCCCCNCC(O)COc1ccc(SC(C)C)cc1.Cl (stereo not shown) [Example 4, 1-[4-[(1-Methylethyl)thio]phenoxy]-3-(dodecylamino)-2-Propanol Hydrochloride] | < 0.001 | twice as potent | 0.08 | – | – | – | – | – | – | – | – | – | – | – |
| CSc1ccccc1OCC(O)CNC(C)C (stereo not shown) [Test agent A, 1-(isopropylamino)-3-[2-(methylthio)phenoxy]-2-propanol, reference compound] | 1.0 | – | 0.04 | 1-2% | substantial activity | relatively weak activity | 27-29 mm Hg | -20 Millimeters of mercury | -27 Millimeters of mercury | 137 Microgram/0.5 ml. plateletrich human plasma | 33 Microgram/0.5 ml. plateletrich human plasma | – | – | – |
| CC(C)Sc1ccc(OCC(O)CNCCCCC2CCCCC2)cc1 (stereo not shown) [Example 6, 1-[(4-cyclohexylbutyl)amino]-3-[4-[(1-methylethyl)thio]phenoxy]-2-propanolhydrochloride] | < 0.002 | about 1/2 | 0.02 | – | – | – | – | – | – | 53 Microgram/0.5 ml. plateletrich human plasma | 29 Microgram/0.5 ml. plateletrich human plasma | -47 Millimeters of mercury | -74 Millimeters of mercury | – |
| CCCCCCCCNCC(O)COc1ccccc1SC.Cl (stereo not shown) [Example 8, 1-[2-(Methylthio)phenoxy]-3-(octylamino)-2-propanol Hydrochloride] | 0.004 | – | 2.6 | 1-2% | – | – | – | – | – | 65 Microgram/0.5 ml. plateletrich human plasma | 32 Microgram/0.5 ml. plateletrich human plasma | -15 Millimeters of mercury | -64 Millimeters of mercury | – |
| CCCCCCCCNCC(O)COc1cccc(SC(C)C)c1.Cl (stereo not shown) [Example 3, 1-[3-[(1-Methylethyl)thio]phenoxy]-3-(octylamino)-2-propanol Hydrochloride] | < 0.001 | – | 0.7 | – | – | – | – | – | – | 53 Microgram/0.5 ml. plateletrich human plasma | 24 Microgram/0.5 ml. plateletrich human plasma | -20 Millimeters of mercury | -87 Millimeters of mercury | – |
| CCCCCCCCNCC(O)COc1ccc(SC)cc1C (stereo not shown) [Example 7, 1-[2-methyl-4-(methylthio)phenoxy]-3-(octylamino)-2-propanol] | < 0.0006 | – | 0.8 | – | – | – | – | – | – | 82 Microgram/0.5 ml. plateletrich human plasma | 39 Microgram/0.5 ml. plateletrich human plasma | -56 Millimeters of mercury | -80 Millimeters of mercury | – |
| CSc1ccc(OCC(O)CNC(C)C)cc1 (stereo not shown) [Test agent B, 1-(isopropylamino)-3-[4-(methylthio)phenoxy]-2-propanol, reference compound] | 0.2 | – | 0.04 | – | substantial activity | relatively weak activity | 27-29 mm Hg | -3 Millimeters of mercury | -29 Millimeters of mercury | 107 Microgram/0.5 ml. plateletrich human plasma | 28 Microgram/0.5 ml. plateletrich human plasma | – | – | essentially inactive |
| CCCCCCCCNCC(O)COc1ccc(SC)cc1 (stereo not shown) [Example 1, 1-[4-(Methylthio)phenoxy]-3-(octylamino)-2-propanol] | < 0.001 | – | – | – | – | – | – | – | – | 69 Microgram/0.5 ml. plateletrich human plasma | 42 Microgram/0.5 ml. plateletrich human plasma | -22 Millimeters of mercury | -59 Millimeters of mercury | – |
| CC(C)Sc1ccc(OCC(O)CNCCC2CCCCC2)cc1 (stereo not shown) [Example 5, 1-[(2-cyclohexylethyl)amino]-3-[4-[(1-methylethyl)thio]phenoxy]-2-propanolhydrochloride] | < 0.0006 | – | 2.4 | – | – | – | – | – | – | 56 Microgram/0.5 ml. plateletrich human plasma | 47 Microgram/0.5 ml. plateletrich human plasma | -63 Millimeters of mercury | -87 Millimeters of mercury | – |
| COc1ccc(Cc2nccc3cc(OC)c(OC)cc23)cc1OC [Papaverine, reference compound] | – | – | – | – | – | – | – | – | – | – | – | -31 Millimeters of mercury | – | – |
